Patent US8541373B2, “BChE albumin fusions for the treatment of cocaine abuse” (priority 2009, dated 2013)
Values joined by “and” are separate entries in the source; they are usually repeats but may differ in a detail not shown here. Equal entries are not always repeated.

Experiments:
[1] = system: cocaine-induced reinstatement; assay: Reinstatement of cocaine self-administration; format: in vivo, squirrel monkeys (Saimiri sciureus)
Method: The blood level data were analyzed separately for each metabolite and time point (5 or 30 min). […] The self-administration data were analyzed separately for response rate or injections following either vehicle treatment or AlbuBChE treatment. Control data were included in the analysis by taking the average of the last 3 days for the immediately preceding baseline condition. A within subjects ANOVA was then performed with follow-up tests contrasting days following vehicle or AlbuBChE with the control. For the reinstatement tests, a two-way ANOVA was performed for both response rate and injections, with time post vehicle or AlbuBChE as the within-subjects factor and pretreatment (vehicle or AlbuBChE) as the between subjects factor. Follow-up contrast compared vehicle and AlbuBChE at each time point.

[2] = Animal observations in PK/PD study
cocaine = assay: Plasma cocaine, ecgonine methyl ester and benzoylecgonine after IV cocaine post-AlbuBChE; format: in vivo, Squirrel monkeys; conditions: for Benzoylecgonine Plasma Concentration, Mean / Cocaine Plasma Concentration, Mean / Ecgonine methyl ester plasma concentration (mean): mean n=3
Method: Blood was placed into K2EDTA blood collection tubes with esterase inhibitor (diisopropylfluorophosphate (DFP). Tubes were inverted several times and placed on wet ice upon collection. Samples were centrifuged at 2-8° C. within 45 minutes of collection. The resultant plasma will be recovered and a single 200 μL aliquot of plasma was placed into polypropylene tubes. Plasma samples was frozen over dry ice and stored at approximately −70° C.
The bioanalytical method measured the plasma concentration of cocaine and two of its metabolites: ecgonine methyl ester and benzoylecgonine. Cocaine metabolic pathway is shown in FIG. 9, ecgonine methyl ester metabolite is formed directly from cocaine through the butrylcholine esterase enzyme. As such, this metabolite can be predicted to increase following AlbuBChE administration.
The blood level data were analyzed separately for each metabolite and time point (5 or 30 min). A one-way analysis-of-variance (ANOVA) was performed with follow-up Dunnett tests using the results of monkeys treated with vehicle as the control. The self-administration data were analyzed separately for response rate or injections following either vehicle treatment or AlbuBChE treatment. Control data were included in the analysis by taking the average of the last 3 days for the immediately preceding baseline condition. A within subjects ANOVA was then performed with follow-up tests contrasting days following vehicle or AlbuBChE with the control. For the reinstatement tests, a two-way ANOVA was performed for both response rate and injections, with time post vehicle or AlbuBChE as the within-subjects factor and pretreatment (vehicle or AlbuBChE) as the between subjects factor. Follow-up contrast compared vehicle and AlbuBChE at each time point.

[3] = system: cocaine subjective effects; assay: Clinical study: subjective effects of cocaine (visual analogue scale); format: in vivo, human; conditions: humans
Method: Subjective effects are measured using a computerized (21 CFR 11 validated) visual analogue scale (VAS). The time points for collection of subjective effects match with those for cocaine blood samples. The following set of VAS are: Drug Liking, Take Drug Again, Overall Drug Liking, High, Good Effects, Bad Effects, Feeling Rush, Desire for Cocaine, Feeling Anxious, Over-Stimulated, and Any Drug Effects.
PD sampling timepoints of VAS parameters after each cocaine dose are as follows: pre-dose, 2, 5, 10, 15, 30, 45, 60, 90, and 120 minutes post dose.

[4] = 5 min after cocaine 1 mg/kg IV given 2 hr post-AlbuBChE 5 mg/kg IM, individual monkeys 547, 3434, 53B
[5] = 5 min after cocaine 1 mg/kg IV given 72 hr post-AlbuBChE 5 mg/kg IM, individual monkeys
[6] = 5 min after cocaine 1 mg/kg IV given 96 hr post-AlbuBChE 5 mg/kg IM, individual monkeys
[7] = 5 min after cocaine 1 mg/kg IV, 2 hr post-AlbuBChE 5 mg/kg IM
[8] = 5 min after cocaine 1 mg/kg IV, 72 hr post-AlbuBChE 5 mg/kg IM
[9] = 5 min after cocaine 1 mg/kg IV, 96 hr post-AlbuBChE 5 mg/kg IM
[10] = 30 min after cocaine 1 mg/kg IV given 2 hr post-AlbuBChE 5 mg/kg IM, individual monkeys
[11] = 30 min after cocaine 1 mg/kg IV given 72 hr post-AlbuBChE 5 mg/kg IM, individual monkeys
[12] = 30 min after cocaine 1 mg/kg IV given 96 hr post-AlbuBChE 5 mg/kg IM, individual monkeys
[13] = 30 min after cocaine 1 mg/kg IV, 2 hr post-AlbuBChE 5 mg/kg IM
[14] = 30 min after cocaine 1 mg/kg IV, 72 hr post-AlbuBChE 5 mg/kg IM
[15] = 30 min after cocaine 1 mg/kg IV, 96 hr post-AlbuBChE 5 mg/kg IM

Substance: AlbuBChE
- Reinstatement of responding (response rate and injections) ([1]; 5 mg/kg i.m., 0.3 mg/kg cocaine i.v., 2 hr time point): significantly blocked
- Reinstatement of responding (responses and injections) ([1]; 5 mg/kg, 0.1 mg/kg cocaine as reinstatement dose): significant at 2 hrs
- Cocaine-related observations (hyperactivity, increased respiratory rate with abdominal breathing) ([2]; pre-treatment 0.2 to 5 mg/kg, cocaine 1 mg/kg): not observed for five days
- Clinical or cageside observations associated with AlbuBChE ([2]; single IM 0.2, 1 or 5 mg/kg): no clinical or cageside observations
- Deaths during the study ([2]; single IM 0.2, 1 or 5 mg/kg): no deaths
- Tolerability ([2]; single IM dose of 0.2, 1 or 5 mg/kg): well tolerated
- Ecgonine methyl ester concentration increase over control (cocaine; 5 mg/kg IM, 2 hr post-AlbuBChE, 5 min after cocaine): ~40 fold
- Cocaine concentration relative to control (cocaine; 5 mg/kg IM, cocaine 1 mg/kg IV 96 hr post-AlbuBChE): 60 % of control
- Benzoylecgonine Plasma Concentration (cocaine; [4]): 4.83 ng/mL and 23.3 ng/mL and 20.1 ng/mL
- Cocaine Plasma Concentration (cocaine; [4]): 0.575 ng/mL and 20.0 ng/mL and 22.4 ng/mL
- Ecgonine Methyl Ester Plasma Concentration (cocaine; [4]): 109 ng/mL and 417 ng/mL and 333 ng/mL
- Benzoylecgonine Plasma Concentration (cocaine; [5]): 9.93 ng/mL and 41.7 ng/mL and 28.8 ng/mL
- Cocaine Plasma Concentration (cocaine; [5]): 41.3 ng/mL and 176 ng/mL and 104 ng/mL
- Ecgonine Methyl Ester Plasma Concentration (cocaine; [5]): 29.3 ng/mL and 101 ng/mL and 73.2 ng/mL
- Benzoylecgonine Plasma Concentration (cocaine; [6]): 15.5 ng/mL and 36.2 ng/mL and 26.3 ng/mL
- Cocaine Plasma Concentration (cocaine; [6]): 97.9 ng/mL and 191 ng/mL and 112 ng/mL
- Ecgonine Methyl Ester Plasma Concentration (cocaine; [6]): 40.5 ng/mL and 72.3 ng/mL and 35.8 ng/mL
- Benzoylecgonine Plasma Concentration, Mean (cocaine; [7]): 16.1 ng/mL
- Cocaine Plasma Concentration, Mean (cocaine; [7]): 14.3 ng/mL
- Ecgonine methyl ester plasma concentration (mean) (cocaine; [7]): 286 ng/mL
- Benzoylecgonine Plasma Concentration, Mean (cocaine; [8]): 26.8 ng/mL
- Cocaine Plasma Concentration, Mean (cocaine; [8]): 107 ng/mL
- Ecgonine methyl ester plasma concentration (mean) (cocaine; [8]): 67.8 ng/mL
- Benzoylecgonine Plasma Concentration, Mean (cocaine; [9]): 26.0 ng/mL
- Cocaine Plasma Concentration, Mean (cocaine; [9]): 134 ng/mL
- Ecgonine methyl ester plasma concentration (mean) (cocaine; [9]): 49.5 ng/mL
- Benzoylecgonine Plasma Concentration (cocaine; [10]): 11.1 ng/mL and 20.8 ng/mL and 10.9 ng/mL
- Cocaine Plasma Concentration (cocaine; [10]): 0.581 ng/mL and 0.115 ng/mL and 0.261 ng/mL
- Ecgonine Methyl Ester Plasma Concentration (cocaine; [10]): 252 ng/mL and 314 ng/mL and 218 ng/mL
- Benzoylecgonine Plasma Concentration (cocaine; [11]): 20.7 ng/mL and 33.4 ng/mL and 21 ng/mL
- Cocaine Plasma Concentration (cocaine; [11]): 65.0 ng/mL and 57.9 ng/mL and 44.9 ng/mL
- Ecgonine Methyl Ester Plasma Concentration (cocaine; [11]): 61.3 ng/mL and 112 ng/mL and 81.7 ng/mL
- Benzoylecgonine Plasma Concentration (cocaine; [12]): 18.9 ng/mL and 37.6 ng/mL and 21.5 ng/mL
- Cocaine Plasma Concentration (cocaine; [12]): 62.9 ng/mL and 75.6 ng/mL and 67.1 ng/mL
- Ecgonine Methyl Ester Plasma Concentration (cocaine; [12]): 25.7 ng/mL and 76.8 ng/mL and 45.2 ng/mL
- Benzoylecgonine Plasma Concentration, Mean (cocaine; [13]): 14.3 ng/mL
- Cocaine Plasma Concentration, Mean (cocaine; [13]): 0.319 ng/mL
- Ecgonine methyl ester plasma concentration (mean) (cocaine; [13]): 261 ng/mL
- Benzoylecgonine Plasma Concentration, Mean (cocaine; [14]): 25.0 ng/mL
- Cocaine Plasma Concentration, Mean (cocaine; [14]): 55.9 ng/mL
- Ecgonine methyl ester plasma concentration (mean) (cocaine; [14]): 85.0 ng/mL
- Benzoylecgonine Plasma Concentration, Mean (cocaine; [15]): 26.0 ng/mL
- Cocaine Plasma Concentration, Mean (cocaine; [15]): 68.5 ng/mL
- Ecgonine methyl ester plasma concentration (mean) (cocaine; [15]): 49.2 ng/mL
- Cocaine blood levels vs vehicle control (cocaine; 2 hours following AlbuBChE, 5- and 30-min time points): significantly reduced
- Blood levels of BZ vs vehicle control (cocaine; 2 hr following AlbuBChE): not significant
- Blood levels of EME vs vehicle control (cocaine; 2 hr following AlbuBChE, 5- and 30 min time point): elevated
- Cocaine blood levels vs vehicle control (cocaine; 72 hours following AlbuBChE, 30-min post cocaine): significantly below control levels
- Blood levels of EME vs vehicle control (cocaine; 72 hours following AlbuBChE, 30 min time point): significantly elevated
- Cocaine blood levels vs vehicle control (cocaine; 96 hours following AlbuBChE, 5 or 30 min time point): not significant
- Duration of decreased amount of cocaine in the blood (cocaine; Squirrel monkeys, 5 mg/kg): at least 72 hours
- VAS Bad Effects ([3]; following cocaine exposure): reduces the feeling of “bad effects”
- Duration of decreased desire to use cocaine ([3]; single administration): up to one week
- VAS Any Drug Effects ([3]; vs placebo): reduces the reporting of “any drug effects.”
- VAS Desire for Cocaine ([3]; vs placebo): decreases the desire for cocaine
- VAS Drug Liking ([3]; vs placebo): decreases cocaine liking
- VAS Feeling Anxious ([3]; vs placebo): reduces feelings of anxiousness
- VAS Feeling Rush ([3]; vs placebo): decreases subjective feeling of “rush”
- VAS Good Effects ([3]; vs placebo): decreases the subjective feeling of “good effects”
- VAS High ([3]; vs placebo): decreases the “high”
- VAS Over-Stimulated ([3]; vs placebo): reduces feelings of being over-stimulated
- VAS Overall Drug Liking ([3]; vs placebo): decreases overall drug liking
- VAS Take Drug Again ([3]; vs placebo): decreases the desire to take cocaine again
